Data as given in ChEMBL document CHEMBL1201862, “PubChem BioAssay data set” (2004).
Values belong to the compound of their own block, whether it stands above or below them. The source made the active and inactive calls.

How the values were obtained:
[1] = target: Sphingosine 1-phosphate receptor 5 (Homo sapiens, UniProt Q9H228); test: activation of human S1P5 receptor – cell-based, fluorescence, set 2, counter-screen for S1P4 agonist project, late-stage follow-up (AID 504867); assay type: functional
Chain of Sphingosine 1-phosphate receptor 5 (Q9H228 whole entry): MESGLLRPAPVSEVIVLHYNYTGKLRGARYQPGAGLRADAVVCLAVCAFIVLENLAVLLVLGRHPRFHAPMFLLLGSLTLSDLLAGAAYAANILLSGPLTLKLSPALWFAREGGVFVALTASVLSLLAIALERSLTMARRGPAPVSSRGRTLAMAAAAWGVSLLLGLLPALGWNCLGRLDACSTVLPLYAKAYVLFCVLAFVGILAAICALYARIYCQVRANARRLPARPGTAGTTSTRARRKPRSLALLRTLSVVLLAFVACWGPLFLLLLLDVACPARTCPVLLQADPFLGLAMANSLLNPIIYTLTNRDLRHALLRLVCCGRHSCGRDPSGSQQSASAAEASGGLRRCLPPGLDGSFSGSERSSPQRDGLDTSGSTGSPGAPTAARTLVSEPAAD

[2] = target: Sphingosine 1-phosphate receptor 1 (Homo sapiens, UniProt P21453); test: Late-stage fluorescence-based dose-response cell-based counterscreen assay to identify agonists of the Sphingosine 1-Phosphate Receptor 4 (S1P4): Sphingosine 1-Phosphate Receptor 1 (S1P1) agonist assay Set 2.; assay type: functional
[3] = target: Sphingosine 1-phosphate receptor 3 (Homo sapiens, UniProt Q99500); test: Late-stage fluorescence-based dose-response cell-based counterscreen assay to identify agonists of the Sphingosine 1-Phosphate Receptor 4 (S1P4): Sphingosine 1-Phosphate Receptor 3 (S1P3) agonist assay Set 2.; assay type: functional
Chain of Sphingosine 1-phosphate receptor 3 (Q99500 whole entry): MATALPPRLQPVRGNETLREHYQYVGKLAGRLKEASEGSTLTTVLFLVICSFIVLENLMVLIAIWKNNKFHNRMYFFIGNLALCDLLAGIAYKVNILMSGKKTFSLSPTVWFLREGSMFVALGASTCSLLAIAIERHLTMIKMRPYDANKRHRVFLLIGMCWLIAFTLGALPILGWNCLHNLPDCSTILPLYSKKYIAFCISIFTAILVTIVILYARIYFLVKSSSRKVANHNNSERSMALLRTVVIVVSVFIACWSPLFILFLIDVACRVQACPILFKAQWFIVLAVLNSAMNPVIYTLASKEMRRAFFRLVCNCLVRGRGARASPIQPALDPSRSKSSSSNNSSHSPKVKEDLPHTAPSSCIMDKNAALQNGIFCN

[4] = target: Sphingosine 1-phosphate receptor 2 (Homo sapiens, UniProt O95136); test: activation of human S1P2 receptor – cell-based, fluorescence, set 2, counter-screen for S1P4 agonist project, late-stage follow-up (AID 504873); assay type: functional
[5] = target: ALK tyrosine kinase receptor (Homo sapiens, UniProt Q9UM73); assay type: functional;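 note: ALK tested as one member of a kinase panel screen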
[6] = target: Cyclin-dependent kinase 8 (Homo sapiens, UniProt P49336); test: Navigating the Kinome. Panel member name: CDK8; assay type: functional
Chain of Cyclin-dependent kinase 8 (P49336 whole entry): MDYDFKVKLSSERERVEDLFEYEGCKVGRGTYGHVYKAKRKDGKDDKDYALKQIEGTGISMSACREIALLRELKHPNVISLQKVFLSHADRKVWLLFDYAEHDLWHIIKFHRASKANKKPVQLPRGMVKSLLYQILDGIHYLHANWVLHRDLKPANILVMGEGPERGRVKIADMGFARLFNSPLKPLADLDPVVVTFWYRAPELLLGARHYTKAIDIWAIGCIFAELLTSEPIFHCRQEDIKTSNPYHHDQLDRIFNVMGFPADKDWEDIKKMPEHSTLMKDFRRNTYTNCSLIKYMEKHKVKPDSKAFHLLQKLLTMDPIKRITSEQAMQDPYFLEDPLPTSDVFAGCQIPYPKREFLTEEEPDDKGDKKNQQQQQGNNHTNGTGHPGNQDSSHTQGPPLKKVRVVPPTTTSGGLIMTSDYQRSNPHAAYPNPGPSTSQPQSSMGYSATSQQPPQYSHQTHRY

[7] = target: Serine/threonine-protein kinase pim-1 (Homo sapiens, UniProt P11309); assay type: functional
[8] = target: Glycogen synthase kinase-3 alpha (Homo sapiens, UniProt P49840); assay type: functional;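 note: GSK3A result taken from a broad kinome-wide kinase panel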
[9] = target: Mitogen-activated protein kinase 8 (Homo sapiens, UniProt P45983); assay type: functional;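 note: value comes from one member of a kinome-wide kinase profiling panel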
Chain of Mitogen-activated protein kinase 8 (P45983 whole entry): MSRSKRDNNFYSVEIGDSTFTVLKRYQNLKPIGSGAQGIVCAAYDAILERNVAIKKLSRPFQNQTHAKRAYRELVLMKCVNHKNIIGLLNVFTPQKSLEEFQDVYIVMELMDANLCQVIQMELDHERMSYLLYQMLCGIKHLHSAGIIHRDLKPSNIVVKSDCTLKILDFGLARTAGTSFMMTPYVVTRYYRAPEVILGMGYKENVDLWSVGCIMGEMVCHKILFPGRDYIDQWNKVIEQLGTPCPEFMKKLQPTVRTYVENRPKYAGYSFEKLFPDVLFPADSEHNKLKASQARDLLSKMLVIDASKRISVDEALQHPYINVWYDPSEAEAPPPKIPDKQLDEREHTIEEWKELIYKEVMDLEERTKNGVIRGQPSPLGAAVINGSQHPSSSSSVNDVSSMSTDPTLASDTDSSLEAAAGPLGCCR

Activin receptor type-1 = Activin receptor type-1 (Homo sapiens, UniProt Q04771); test: Navigating the Kinome. Panel member name: ACVR1; assay type: functional
[10] = target: Calcium/calmodulin-dependent protein kinase type II subunit alpha (Homo sapiens, UniProt Q9UQM7); test: Navigating the Kinome. Panel member name: CAMK2A; assay type: functional
[11] = target: G protein-coupled receptor kinase 5 (Homo sapiens, UniProt P34947); test: Navigating the Kinome. Panel member name: GPRK5; assay type: functional
[12] = target: Serine/threonine-protein kinase TAO1 (Homo sapiens, UniProt Q7L7X3); assay type: functional
[13] = target: Tyrosine-protein kinase Fyn (Homo sapiens, UniProt P06241); assay type: functional
[14] = target: Serine/threonine-protein kinase N2 (Homo sapiens, UniProt Q16513); assay type: functional
[15] = target: Death-associated protein kinase 3 (Homo sapiens, UniProt O43293); assay type: functional;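 note: measured as one member of a kinome-wide profiling panel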
Chain of Death-associated protein kinase 3 (O43293 whole entry): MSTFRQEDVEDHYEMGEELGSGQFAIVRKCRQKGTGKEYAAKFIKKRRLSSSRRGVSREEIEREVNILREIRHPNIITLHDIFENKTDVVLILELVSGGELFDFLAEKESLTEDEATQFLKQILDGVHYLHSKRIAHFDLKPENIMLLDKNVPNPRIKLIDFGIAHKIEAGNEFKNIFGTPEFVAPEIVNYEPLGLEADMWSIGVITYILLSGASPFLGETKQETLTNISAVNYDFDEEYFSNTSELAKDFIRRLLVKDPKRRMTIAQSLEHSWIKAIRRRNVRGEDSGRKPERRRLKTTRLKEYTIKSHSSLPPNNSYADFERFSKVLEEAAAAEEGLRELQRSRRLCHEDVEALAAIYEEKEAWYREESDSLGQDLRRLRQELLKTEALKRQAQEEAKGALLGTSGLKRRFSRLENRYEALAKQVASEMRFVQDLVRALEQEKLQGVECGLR

[16] = target: Serine/threonine-protein kinase PAK 4 (Homo sapiens, UniProt O96013); assay type: functional;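 note: value obtained within a kinome profiling panel in which PAK4 was one of the panel members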
Chain of Serine/threonine-protein kinase PAK 4 (O96013 whole entry): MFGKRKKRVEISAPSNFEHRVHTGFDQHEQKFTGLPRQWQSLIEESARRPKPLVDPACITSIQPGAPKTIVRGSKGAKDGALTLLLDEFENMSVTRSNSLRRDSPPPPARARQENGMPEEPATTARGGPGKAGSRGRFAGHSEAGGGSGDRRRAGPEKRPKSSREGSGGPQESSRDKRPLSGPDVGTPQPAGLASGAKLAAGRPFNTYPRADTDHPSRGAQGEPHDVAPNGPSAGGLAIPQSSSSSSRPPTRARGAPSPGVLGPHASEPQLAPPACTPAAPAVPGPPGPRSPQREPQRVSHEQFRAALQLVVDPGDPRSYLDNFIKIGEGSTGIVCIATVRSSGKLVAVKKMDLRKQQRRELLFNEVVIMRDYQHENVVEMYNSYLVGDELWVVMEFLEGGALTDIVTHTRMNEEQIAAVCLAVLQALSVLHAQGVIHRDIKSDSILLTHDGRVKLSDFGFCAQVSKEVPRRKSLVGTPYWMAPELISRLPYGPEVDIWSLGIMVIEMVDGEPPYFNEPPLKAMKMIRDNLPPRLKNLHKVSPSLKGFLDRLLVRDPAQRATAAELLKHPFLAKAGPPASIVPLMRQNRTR

[17] = target: Tyrosine-protein kinase Lck (Homo sapiens, UniProt P06239); assay type: functional;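 note: lck was assayed as one member of a kinase panel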
[18] = target: Mitogen-activated protein kinase kinase kinase kinase 4 (Homo sapiens, UniProt O95819); assay type: functional
[19] = target: Tyrosine-protein kinase JAK3 (Homo sapiens, UniProt P52333); assay type: functional
[20] = target: Fibroblast growth factor receptor 1 (Homo sapiens, UniProt P11362); assay type: functional
[21] = target: Serine/threonine-protein kinase D3 (Homo sapiens, UniProt O94806); assay type: functional;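 note: determined within a kinase panel screen, with PRKCN as the panel member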
Chain of Serine/threonine-protein kinase D3 (O94806 whole entry): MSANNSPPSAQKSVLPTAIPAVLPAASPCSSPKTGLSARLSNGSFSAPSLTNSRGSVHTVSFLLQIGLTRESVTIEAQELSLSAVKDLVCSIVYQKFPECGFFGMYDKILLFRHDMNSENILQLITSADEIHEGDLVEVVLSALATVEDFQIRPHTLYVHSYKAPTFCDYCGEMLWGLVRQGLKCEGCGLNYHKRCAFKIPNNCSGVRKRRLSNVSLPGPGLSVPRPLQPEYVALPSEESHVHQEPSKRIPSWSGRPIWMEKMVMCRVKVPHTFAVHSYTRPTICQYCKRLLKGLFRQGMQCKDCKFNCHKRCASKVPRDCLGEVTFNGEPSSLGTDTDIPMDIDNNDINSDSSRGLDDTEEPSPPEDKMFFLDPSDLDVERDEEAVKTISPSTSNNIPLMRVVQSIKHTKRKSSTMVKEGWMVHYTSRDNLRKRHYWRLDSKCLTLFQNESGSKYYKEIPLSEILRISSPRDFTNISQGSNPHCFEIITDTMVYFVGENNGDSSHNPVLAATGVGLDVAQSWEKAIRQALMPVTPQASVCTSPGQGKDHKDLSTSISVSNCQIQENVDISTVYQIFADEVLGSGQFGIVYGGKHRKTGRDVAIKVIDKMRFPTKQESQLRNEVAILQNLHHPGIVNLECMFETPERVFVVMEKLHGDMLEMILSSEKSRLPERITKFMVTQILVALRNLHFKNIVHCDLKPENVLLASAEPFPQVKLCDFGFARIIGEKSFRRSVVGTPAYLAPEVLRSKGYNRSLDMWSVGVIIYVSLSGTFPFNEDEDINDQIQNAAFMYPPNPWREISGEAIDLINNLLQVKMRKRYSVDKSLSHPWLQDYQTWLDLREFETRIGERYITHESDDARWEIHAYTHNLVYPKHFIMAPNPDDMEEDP

[22] = target: Tyrosine-protein kinase ABL1 (Homo sapiens, UniProt P00519); assay type: functional
[23] = target: Tyrosine-protein kinase BTK (Homo sapiens, UniProt Q06187); assay type: functional
Focal adhesion kinase 1 = Focal adhesion kinase 1 (Homo sapiens, UniProt Q05397); assay type: functional;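 note: measured as one member of a kinome panel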
[24] = target: Casein kinase I isoform alpha (Homo sapiens, UniProt P48729); assay type: functional
Chain of Casein kinase I isoform alpha (P48729 whole entry, canonical isoform): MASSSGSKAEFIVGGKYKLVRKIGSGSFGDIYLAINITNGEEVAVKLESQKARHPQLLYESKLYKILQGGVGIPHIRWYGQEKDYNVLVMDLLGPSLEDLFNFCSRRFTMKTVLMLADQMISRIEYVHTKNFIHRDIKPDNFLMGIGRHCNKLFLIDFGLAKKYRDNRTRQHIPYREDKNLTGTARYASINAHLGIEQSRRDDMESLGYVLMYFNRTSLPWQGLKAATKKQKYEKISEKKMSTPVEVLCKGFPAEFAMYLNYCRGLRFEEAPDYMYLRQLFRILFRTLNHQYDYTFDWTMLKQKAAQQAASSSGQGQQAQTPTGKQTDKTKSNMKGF

Orexin receptor type 2 [25] = target: T1, Orexin receptor type 2 (Homo sapiens, UniProt O43614); test: Counterscreen assay for antagonists of the orexin 1 receptor (OX1R; HCRTR1): Fluorescence-based cell-based dose response assay for antagonists of the orexin 2 receptor (OX2R; HCRTR2), run by assay provider.; assay type: functional
T1 sequence (O43614 whole entry): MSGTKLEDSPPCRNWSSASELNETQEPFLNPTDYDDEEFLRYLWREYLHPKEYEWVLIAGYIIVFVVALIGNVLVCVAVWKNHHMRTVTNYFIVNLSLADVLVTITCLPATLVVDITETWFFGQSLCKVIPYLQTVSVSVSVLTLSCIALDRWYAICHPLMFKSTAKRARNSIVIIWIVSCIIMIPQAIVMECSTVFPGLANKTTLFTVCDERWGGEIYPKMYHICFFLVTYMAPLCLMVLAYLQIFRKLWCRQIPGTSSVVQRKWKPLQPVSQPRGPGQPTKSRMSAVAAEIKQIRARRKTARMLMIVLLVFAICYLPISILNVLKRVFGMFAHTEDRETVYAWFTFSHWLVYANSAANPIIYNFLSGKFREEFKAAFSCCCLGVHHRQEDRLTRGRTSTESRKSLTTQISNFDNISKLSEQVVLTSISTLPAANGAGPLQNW

[26] = target: T2, Microphthalmia-associated transcription factor (Homo sapiens, UniProt O75030); test: reducers of TRPM1 reporter luminescence, concentration series – cell-based, SK-MEL-5, cherry-picked, set 3, MITF inhibitor project, dose response (AID 493073); assay type: functional;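 note: SK-MEL-5 melanoma cells with luciferase driven by the MITF target TRPM1 promoter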
T2 sequence (O75030 whole entry): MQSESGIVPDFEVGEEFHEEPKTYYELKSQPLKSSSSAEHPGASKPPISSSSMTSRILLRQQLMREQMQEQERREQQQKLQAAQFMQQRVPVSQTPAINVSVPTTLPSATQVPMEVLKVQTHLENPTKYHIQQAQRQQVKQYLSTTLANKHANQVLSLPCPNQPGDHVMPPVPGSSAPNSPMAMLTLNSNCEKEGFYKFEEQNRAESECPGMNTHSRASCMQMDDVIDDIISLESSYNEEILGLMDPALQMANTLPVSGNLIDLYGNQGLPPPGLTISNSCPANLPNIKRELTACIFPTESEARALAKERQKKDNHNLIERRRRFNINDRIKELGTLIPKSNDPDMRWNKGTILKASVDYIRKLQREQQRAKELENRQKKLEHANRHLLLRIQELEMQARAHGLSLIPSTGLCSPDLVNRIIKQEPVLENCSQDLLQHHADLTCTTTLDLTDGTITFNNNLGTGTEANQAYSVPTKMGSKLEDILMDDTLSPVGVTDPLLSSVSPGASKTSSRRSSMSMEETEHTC

[27] = blockers of bursicon-stimulated LGR2 cAMP reporter – cell-based, HEK293, CRE-luciferase reporter, cherry pick, set 2, dose response (AID 743343); assay type: functional;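 note: transfected cells were stimulated with diluted bursicon conditioned medium after compound addition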
Orexin receptor type 2 [28] = target: T1, Orexin receptor type 2; test: Counterscreen assay for antagonists of the orexin 1 receptor (OX1R; HCRTR1): Homogeneous Time Resolved Fluorescence (HTRF)-based cell-based dose response assay for antagonists of the orexin 2 receptor (OX2R; HCRTR2), run by assay provider.; assay type: functional
[29] = target: T3, Orexin/Hypocretin receptor type 1 (Homo sapiens, UniProt O43613); test: (§1) Fluorescence-based cell-based high throughput dose response assay for antagonists of the orexin 1 receptor (OX1R; HCRTR1). [Related pubchem assays (depositor defined):AID434989, AID435008, AID463079, AID485270, AID492963, AID492964, AID492965, AID493232, AID504717, AID504718]; assay type: functional
T3 sequence (O43613 whole entry): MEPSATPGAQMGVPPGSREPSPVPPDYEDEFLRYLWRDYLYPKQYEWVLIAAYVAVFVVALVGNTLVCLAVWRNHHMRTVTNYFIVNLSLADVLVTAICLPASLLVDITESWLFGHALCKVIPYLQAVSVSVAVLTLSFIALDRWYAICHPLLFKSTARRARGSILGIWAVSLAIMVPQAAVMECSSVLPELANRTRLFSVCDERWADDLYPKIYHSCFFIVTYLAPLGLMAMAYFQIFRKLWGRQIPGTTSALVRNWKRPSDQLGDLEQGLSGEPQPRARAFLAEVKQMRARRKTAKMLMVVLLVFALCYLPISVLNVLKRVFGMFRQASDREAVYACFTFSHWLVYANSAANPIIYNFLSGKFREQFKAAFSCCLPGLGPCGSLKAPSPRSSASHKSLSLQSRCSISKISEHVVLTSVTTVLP

[30] = (§2) Counterscreen for antagonists of the orexin 1 receptor (OX1R; HCRTR1): Fluorescence-based cell-based high throughput dose response assay to identify antagonists of the parental CHO cell line. [Related pubchem assays (depositor defined):AID434989, AID435008, AID463079, AID485270, AID492963, AID492964, AID492965, AID493232, AID504699, AID504701]; assay type: functional
[31] = target: T3, Orexin/Hypocretin receptor type 1; test: as §1, with “Homogeneous Time Resolved Fluorescence (HTRF)-based” for “Fluorescence-based”; assay type: functional
[32] = blockade of melanocortin 4 receptor signaling – cell-based, plate reader, cherry pick, counter-screen for LGR2 antagonist project, dose response (AID 743444); assay type: functional;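 note: transfected HEK 293 cells stimulated with alpha-MSH peptide; potency of inhibitors of the alpha-MSH evoked signal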
[33] = target: Neurotensin receptor type 1 (Homo sapiens, UniProt P30989); assay type: functional;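 note: Image-based confirmatory dose-response assay measuring agonist activity at NTR1; NTR1-expressing U2OS osteosarcoma cells imaged for beta-arrestin GFP spot formation; agonist potency where compounds increase beta-arrestin recruitment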
CHO-K1 = test: as §2, with “Homogeneous time resolved fluorescence (HTRF)-based” for “Fluorescence-based”, “cell-based” for “cell-based high throughput”, “CHO-K1” for “CHO”; assay type: functional; conditions: Cricetulus griseus;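 note: potency for inhibition of ATP-stimulated IP1 production as antagonists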
[34] = A549 cell cytotoxicity, dose response, cytotoxicity control, plate reader, cherry-pick, antagonist series (AID 743412); assay type: functional, cell-based
[35] = toxicity toward HepG2 liver cells – cell-based, plate reader, cherry-pick, antagonist series, cytotoxicity control, dose response (AID 743416); assay type: functional
[36] = viability loss in HEK293 cells – cell-based, plate reader, cherry-picked samples, cytotoxicity control, dose response (AID 743446); assay type: functional
[37] = target: Protein disulfide-isomerase (Homo sapiens, UniProt P07237); test: inhibition of PDI-driven insulin aggregation – biochemical, turbidity, absorbance, cherry-picked samples, dose response (AID 602350); assay type: functional

EC50 [1]: 0.0336 µM (active)
EC50 [2]: 3.01 µM (active)
EC50 [3]: > 25 µM (inactive)
EC50 [4]: > 25 µM (inactive)
SMILES: C/N=C1/S/C(=C/c2cc(C)n(-c3ccc(Cl)cc3F)c2C)C(=O)N1C

Ki [5]: > 6.31 µM (inactive)
Ki [6]: > 3.98 µM (inactive)
Ki [7]: > 6.31 µM (inactive)
Ki [8]: > 3.98 µM (inactive)
Ki [9]: > 5.01 µM (inactive)
Ki (Activin receptor type-1): > 3.98 µM (inactive)
Ki [10]: > 7.94 µM (inactive)
Ki [11]: > 3.98 µM (inactive)
Ki [12]: > 6.31 µM (inactive)
Ki [13]: > 6.31 µM (inactive)
Ki [14]: > 5.01 µM (inactive)
Ki [16]: > 5.01 µM (inactive)
Ki [17]: > 6.31 µM (inactive)
Ki [18]: > 5.01 µM (inactive)
Ki [19]: > 5.01 µM (inactive)
Ki [20]: > 3.98 µM (inactive)
Ki [21]: > 3.98 µM (inactive)
Ki [22]: > 3.98 µM (inactive)
Ki [23]: > 6.31 µM (inactive)
Ki (Focal adhesion kinase 1): > 6.31 µM (inactive)
Ki [24]: > 3.98 µM (inactive)
SMILES: Cc1cc(=O)[nH]c2[nH]nc(-c3cccc(C(F)(F)F)c3)c12
Ki [15]: > 5.01 µM (inactive)

SMILES: CN(C)S(=O)(=O)c1ccc(-c2csc(N/N=C/c3ccco3)n2)cc1
IC50 (Orexin receptor type 2 [25]): > 88.8 µM (inactive)
AC50 [26]: 3.9 µM (active)
AC50 [27]: 7.23 µM (active)
IC50 (Orexin receptor type 2 [28]): > 50 µM (inactive)
IC50 [29]: > 49.8 µM (inactive)
IC50 [30]: > 49.8 µM (inactive)
IC50 [31]: 7.29 µM (active)
AC50 [32]: 7.48 µM (active)
EC50 [33]: 8.51 µM (active)
IC50 (CHO-K1): > 66.2 µM (inactive)
AC50 [34]: 40.7 µM (active)
AC50 [35]: 5.32 µM (active)
AC50 [36]: 11 µM (active)

AC50 [37]: 19.5 µM (active)
SMILES: O=C(CCC1CCCCC1)NCCN1C2=NC[C@H](Cc3ccc(O)cc3)N2C[C@H]1Cc1ccc(O)cc1
